Where two headings read alike, the source gives them in different places.
Columns and labels:
[1] = molecular target: T1, OCT2 (Homo sapiens, UniProt O15244); test: Inhibition of model substrate uptake in OCT2-overexpressing HEK293 cells; details: for inhibition at 5 min, 20 μM / (S,S)-Ethambutol inhibition [%] / ASP+ inhibition [%] / N-Ethyllidocaine inhibition [%]: OCT2, 20 μM inhibitor, 5 min
T1 sequence (O15244 1-555): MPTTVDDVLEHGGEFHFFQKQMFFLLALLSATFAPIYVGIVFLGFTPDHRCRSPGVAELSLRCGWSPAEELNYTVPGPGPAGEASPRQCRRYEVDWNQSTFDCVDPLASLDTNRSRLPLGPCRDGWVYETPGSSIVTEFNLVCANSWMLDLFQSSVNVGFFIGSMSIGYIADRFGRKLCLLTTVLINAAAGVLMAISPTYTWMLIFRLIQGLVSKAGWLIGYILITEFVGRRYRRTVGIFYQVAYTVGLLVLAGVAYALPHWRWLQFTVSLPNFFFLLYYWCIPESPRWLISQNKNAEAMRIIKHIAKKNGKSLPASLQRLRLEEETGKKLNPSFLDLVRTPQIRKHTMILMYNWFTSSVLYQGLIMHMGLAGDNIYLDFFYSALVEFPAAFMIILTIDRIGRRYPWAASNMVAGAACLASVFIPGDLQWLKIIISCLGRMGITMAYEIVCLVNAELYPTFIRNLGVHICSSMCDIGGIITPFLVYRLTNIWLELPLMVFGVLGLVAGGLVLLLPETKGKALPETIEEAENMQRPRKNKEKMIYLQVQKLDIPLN
Procedure: (§1) All experiments were carried out in transporter-overexpressing HEK293 cells. OCT1-, OCT2-, NET-, DAT-, and SERT-overexpressing cells as well as the empty-vector transfected control cell line were generated as described earlier,[26]−[28] whereas the OCT3-overexpressing HEK293 cells were generous gift of from Drs. Koepsell and Gorbulev (University of Würzburg, Germany). All cells were cultivated in Dulbecco’s modified Eagle’s medium (DMEM) supplemented with 10% (v/v) FCS, penicillin (100 U/mL), and streptomycin (100 μg/mL) and kept in culture for no longer than 30 passages.
(§2) As for the transport experiments, 300,000 HEK293 cells were plated in poly-D-lysine-coated 24-well plates 2 days ahead of the experiment. On every plate, two wells of empty vector (EV)-transfected cells were used as a control to account for the passive influx of the model substrate, and two wells of transporter-overexpressing cells were used to determine the noninhibited uptake of the model substrate. Cells were initially washed once with 37 °C HBSS+ and then incubated with 2 μM model substrate (0.2 μM for MPP^+ uptake by MATs) with and without 20 μM inhibitor for 5 min. For concentration-dependent inhibition experiments, the cells were incubated with increasing inhibitor concentrations. The incubation was terminated by aspiration of the buffer before cells were washed twice with ice-cold HBSS+ and lysed in 80% acetonitrile. Cell lysates were transferred into a black 96-well plate for the fluorescence measurement of ASP^+ or used for sample preparation for LC–MS/MS analysis. […] Fluorescence quantification was performed in technical duplicates.
(§3) Transporter-mediated net uptake was calculated as the difference between uptake in transporter-overexpressing cells and that in the empty-vector-transfected control. […] Vmax is the maximum transport velocity, while Km is defined as the substance concentration that is required to reach half of vmax. The ratio of vmax over Km is termed intrinsic clearance Clint. For inhibition experiments, the transport activity was calculated by using the following equation [drawing 1]
(§4) SubstrateEV refers to the passive uptake of model substrates into the control cells and substratenoninhibited is the uptake in transporter-overexpressing cells without the presence of any inhibitor. The percent inhibition values are then calculated as described in the following [drawing 2]
(§5) For concentration inhibition experiments, the transporter activity was plotted against the log10 of inhibitor concentrations, and the data were fitted by the following equation to determine IC50 values [drawing 3]
(§6) Y refers to the transporter activity, whereas Ymax is the maximum and Ymin is the minimal transporter activity. X is the log10 of inhibitor concentrations, IC50 is the half-maximal inhibitory concentration, and hill slope is the slope factor.

[2] = molecular target: T2, OCT3 (Homo sapiens, UniProt O75751); test: Inhibition of model substrate uptake in OCT3-overexpressing HEK293 cells; assay type: cell-based; details: for (S)-Zolmitriptan inhibition [%] / (S,S)-Ethambutol inhibition [%] / ASP+ inhibition [%]: OCT3
T2 construct: expressed in transfected cells; host or cells: HEK293
T2 sequence (O75751 1-556): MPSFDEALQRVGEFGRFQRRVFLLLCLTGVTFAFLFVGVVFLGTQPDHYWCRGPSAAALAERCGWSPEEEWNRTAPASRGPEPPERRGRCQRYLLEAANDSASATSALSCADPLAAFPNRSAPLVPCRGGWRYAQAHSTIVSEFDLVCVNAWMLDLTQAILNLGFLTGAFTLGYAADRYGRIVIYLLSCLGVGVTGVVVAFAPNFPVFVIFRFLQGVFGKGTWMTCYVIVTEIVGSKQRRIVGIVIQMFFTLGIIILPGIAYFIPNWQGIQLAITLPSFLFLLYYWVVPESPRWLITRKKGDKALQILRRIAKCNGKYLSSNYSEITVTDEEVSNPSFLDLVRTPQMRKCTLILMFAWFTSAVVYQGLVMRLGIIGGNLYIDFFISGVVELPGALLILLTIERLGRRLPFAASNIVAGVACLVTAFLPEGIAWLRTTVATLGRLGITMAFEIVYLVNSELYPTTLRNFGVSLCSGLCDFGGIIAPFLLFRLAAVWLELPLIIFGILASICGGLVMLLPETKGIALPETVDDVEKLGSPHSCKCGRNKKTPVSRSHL
Procedure: as §1, §2, §3, §4, §5, §6

[3] = molecular target: T3, OCT1 (Homo sapiens, UniProt O15245); test: Inhibition of model substrate uptake in OCT1-overexpressing HEK293 cells; assay type: cell-based; set-up: expressed in transfected cells; host or cells: HEK293; details: for IC50: read-out: IC50; for selectivity ratio at 5 min: ratio of the IC50 values of both isomers, label = isomer named in the cell (as a rule the one with the higher IC50), read-out: Stereoselectivity (x-fold for the named isomer)
T3 sequence (O15245 1-554): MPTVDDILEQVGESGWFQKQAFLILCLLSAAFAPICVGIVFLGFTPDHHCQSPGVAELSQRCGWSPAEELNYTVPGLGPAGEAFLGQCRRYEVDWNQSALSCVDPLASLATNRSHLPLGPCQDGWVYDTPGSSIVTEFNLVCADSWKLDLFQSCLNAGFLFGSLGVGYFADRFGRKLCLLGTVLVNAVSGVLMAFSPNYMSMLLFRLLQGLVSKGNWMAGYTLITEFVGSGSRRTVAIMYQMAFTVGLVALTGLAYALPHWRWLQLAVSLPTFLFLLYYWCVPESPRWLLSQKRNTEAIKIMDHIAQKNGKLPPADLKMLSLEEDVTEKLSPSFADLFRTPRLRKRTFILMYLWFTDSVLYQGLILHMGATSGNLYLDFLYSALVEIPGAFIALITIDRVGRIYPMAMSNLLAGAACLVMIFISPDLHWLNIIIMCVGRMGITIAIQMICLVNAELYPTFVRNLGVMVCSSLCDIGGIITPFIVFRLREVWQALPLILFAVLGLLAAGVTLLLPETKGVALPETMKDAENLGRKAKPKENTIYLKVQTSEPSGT
Procedure: Koepsell and Gorbulev (University of Würzburg, Germany).
Fluorescence quantification was performed in technical duplicates.

[4] = human, OCT2-overexpressing HEK293 cells, pH 7.4, probe (S,S)-ethambutol (2 μM), (S,S)-Ethambutol inhibition [%], 2 μM (S,S)-ethambutol
[5] = human, OCT2-overexpressing HEK293 cells, pH 7.4, probe ASP+ (2 μM), ASP+ inhibition [%], 2 μM ASP+
[6] = human, OCT2-overexpressing HEK293 cells, pH 7.4, probe N-ethyllidocaine (2 μM), N-Ethyllidocaine inhibition [%], 2 μM N-ethyllidocaine
[7] = 20 μM inhibitor, 2 μM (S)-zolmitriptan, 5 min
[8] = 20 μM inhibitor, 2 μM (S,S)-ethambutol, 5 min
[9] = 20 μM inhibitor, 2 μM ASP+, 5 min
[10] = OCT1, 20 μM inhibitor, 2 μM (S,S)-ethambutol, 5 min
[11] = OCT1, 20 μM inhibitor, 2 μM ASP+, 5 min, mean of three experiments
[12] = OCT1, 20 μM inhibitor, 2 μM sumatriptan, 5 min
[13] = HEK293, 5 min, read-out: (S)-Zolmitriptan inhibition [%], OCT3, 20 μM inhibitor, 2 μM (S)-zolmitriptan, 5 min
[14] = HEK293, 5 min, read-out: (S,S)-Ethambutol inhibition [%], OCT3, 20 μM inhibitor, 2 μM (S,S)-ethambutol, 5 min
[15] = HEK293, OCT3, 20 μM inhibitor, 2 μM ASP+, 5 min, read-out: ASP+ inhibition [%]
[16] = human, OCT1-overexpressing HEK293 cells, pH 7.4, probe (S,S)-ethambutol (2 μM), (S,S)-Ethambutol inhibition [%], OCT1, 20 μM inhibitor, 2 μM (S,S)-ethambutol, 5 min
[17] = human, OCT1-overexpressing HEK293 cells, pH 7.4, probe ASP+ (2 μM), OCT1, 20 μM inhibitor, 2 μM ASP+, 5 min, mean of three experiments, read-out: ASP+ inhibition [%]
[18] = human, OCT1-overexpressing HEK293 cells, pH 7.4, probe sumatriptan (2 μM), OCT1, 20 μM inhibitor, 2 μM sumatriptan, 5 min, read-out: Sumatriptan inhibition [%]
[19] = human, OCT1-overexpressing HEK293 cells, pH 7.4, OCT1, Table S5

inhibition at 5 min, 20 μM [1, 4] | inhibition at 5 min, 20 μM [1, 5] | inhibition at 5 min, 20 μM [1, 6] | inhibition at 20 µM [2, 13] | inhibition at 20 µM [2, 14] | inhibition at 20 µM [2, 15] | inhibition at 5 min, 20 μM [3, 16] | inhibition at 5 min, 20 μM [3, 17] | inhibition at 5 min, 20 μM [3, 18] | SMILES | also measured
57% | 59.6% | 59.5% |  |  |  |  |  |  | C#CCN[C@H]1CCc2ccccc21 [(S)-Rasagiline] | (S)-Zolmitriptan inhibition [%] [2, 7]: 6.7%; (S,S)-Ethambutol inhibition [%] [2, 8]: 8.8%; ASP+ inhibition [%] [2, 9]: -7.7%; (S,S)-Ethambutol inhibition [%] [3, 10]: 37.5%; ASP+ inhibition [%] [3, 11]: 6.9%; Sumatriptan inhibition [%] [3, 12]: 50.6%
14.5% | 10.9% | 10.4% | -0.8% | 11.3% | 12.9% | -10.6% | 8.8% | -3.4% | CC(C)Cc1ccc([C@H](C)C(=O)O)cc1 [(S)-Ibuprofen] | 
13.5% | 99.6% | 58.2% | 37.9% | 48.6% | 23.5% | 100% | 76.9% | 96.6% | COc1ccccc1OCCNC[C@@H](O)COc1cccc2[nH]c3ccccc3c12 [(R)-Carvedilol] | 

Continued, molecule first:

SMILES | inhibition at 5 min, 20 μM [1, 4] | inhibition at 5 min, 20 μM [1, 5] | inhibition at 5 min, 20 μM [1, 6] | inhibition at 20 µM [2, 13] | inhibition at 20 µM [2, 14] | inhibition at 20 µM [2, 15] | inhibition at 5 min, 20 μM [3, 16] | inhibition at 5 min, 20 μM [3, 17] | inhibition at 5 min, 20 μM [3, 18] | also measured
O=C(OC1C[N+]2(CCCOc3ccccc3)CCC1CC2)C(O)(c1cccs1)c1cccs1 [(R)-Aclidinium] |  |  |  | 43.3% | 62.8% |  |  |  |  | (S,S)-Ethambutol inhibition [%] ([1]; 2 μM (S,S)-ethambutol): -0.8%; inhibition at 5 min, 20 μM ([1]; human, pH 7.4, ASP+ inhibition [%], 2 μM ASP+): 108%; inhibition at 5 min, 20 μM ([1]; human, pH 7.4, N-Ethyllidocaine inhibition [%], 2 μM N-ethyllidocaine): 69.1%; inhibition at 20 µM ([2]; HEK293, read-out: ASP+ inhibition [%], OCT3, 20 μM inhibitor, 2 μM ASP+, 5 min): 37.1%; inhibition at 5 min, 20 μM ([3]; human, pH 7.4, (S,S)-Ethambutol inhibition [%], OCT1, 20 μM inhibitor, 2 μM (S,S)-ethambutol, 5 min): 98.8%; inhibition at 5 min, 20 μM ([3]; human, pH 7.4, OCT1, 20 μM inhibitor, 2 μM ASP+, 5 min, mean of three experiments, read-out: ASP+ inhibition [%]): 71.6%; inhibition at 5 min, 20 μM ([3]; human, pH 7.4, OCT1, 20 μM inhibitor, 2 μM sumatriptan, 5 min, read-out: Sumatriptan inhibition [%]): 93.6%
COc1ccc([C@H](CN(C)C)C2(O)CCCCC2)cc1 [(R)-Venlafaxine] |  |  |  |  |  | -2.8% |  |  |  | ASP+ inhibition [%] ([1]; 2 μM ASP+): 29.1%; N-Ethyllidocaine inhibition [%] ([1]; 2 μM N-ethyllidocaine): 23.1%; inhibition at 20 µM ([2]; HEK293, 5 min, read-out: (S)-Zolmitriptan inhibition [%]): 12.6%; inhibition at 20 µM ([2]; HEK293, 5 min, read-out: (S,S)-Ethambutol inhibition [%]): 12.3%; Sumatriptan inhibition [%] ([3]; human, pH 7.4): 70.8%
CN(C)CCO[C@@](C)(c1ccccc1)c1ccccn1 [(S)-Doxylamine] |  |  |  |  |  |  |  |  |  | (S,S)-Ethambutol inhibition [%] ([1]; 2 μM (S,S)-ethambutol): 26.3%; ASP+ inhibition [%] ([1]; 2 μM ASP+): 64.3%; N-Ethyllidocaine inhibition [%] ([1]; 2 μM N-ethyllidocaine): -17.1%; (S)-Zolmitriptan inhibition [%] [2, 7]: 33.8%; (S,S)-Ethambutol inhibition [%] [2, 8]: 35.8%; ASP+ inhibition [%] [2, 9]: 7.4%; IC50 ([3]; OCT1, Table S5, 2 μM ASP+ or ethambutol as model substrate, 5 min): 32.2 µM; (S,S)-Ethambutol inhibition [%] [3, 10]: 86.5%; ASP+ inhibition [%] [3, 11]: 51.7%; Sumatriptan inhibition [%] [3, 12]: 88.2%; selectivity ratio at 5 min [3, 19]: 1.4
CC(C)Cc1ccc([C@@H](C)C(=O)O)cc1 [(R)-Ibuprofen] | 7% | 11.5% | 7.9% | -1.9% | 3.2% | 12.1% | 5.6% | 8.3% | -7.2% | 
CCCCN1CCCC[C@H]1C(=O)Nc1c(C)cccc1C [(S)-Bupivacaine] | 38.5% | 43.1% | 50.2% | 37.2% | 33.4% | 24.3% | 50.6% | 23.5% | 43.9% | IC50 ([1]; IC50 [μM], OCT2, Table 1): 48.4 µM; selectivity ratio at 5 min ([1]; human, OCT2-overexpressing HEK293 cells, pH 7.4): 2.3; IC50 ([3]; OCT1, Table 1): 18.7 µM; selectivity ratio at 5 min [3, 19]: 1.8
